Biological target: T1, TmMre11 (Thermotoga maritima Mre11 (1–324)) (Thermotoga maritima, UniProt Q9X1X0)
T1 sequence (Q9X1X0 1-324): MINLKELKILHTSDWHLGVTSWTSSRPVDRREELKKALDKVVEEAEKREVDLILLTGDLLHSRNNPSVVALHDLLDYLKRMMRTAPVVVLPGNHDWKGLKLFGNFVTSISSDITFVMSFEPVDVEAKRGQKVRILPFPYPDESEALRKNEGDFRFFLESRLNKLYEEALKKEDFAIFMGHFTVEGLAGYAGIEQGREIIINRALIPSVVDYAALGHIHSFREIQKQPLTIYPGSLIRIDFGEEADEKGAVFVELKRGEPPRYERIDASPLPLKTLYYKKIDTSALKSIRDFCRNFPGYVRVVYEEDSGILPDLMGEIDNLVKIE
Assay: exonuclease assay
Assay type: biochemical
Conditions: conditions only in supplement

SMILES: N=C1NC(=O)/C(=C/c2ccc(O)cc2)S1 [mirin]
- inhibition of exonuclease activity: Nuclease assays using TmMre11
